Values joined by “and” are separate entries in the source; they are usually repeats but may differ in a detail not shown here. Equal entries are not always repeated.
Conditions: [M+H]+; instrument: TW; Major Mix IMS/Tof Calibration Kit (Waters)

Structure (SMILES) | collision cross section (N2) [Å²]
CCC(Cc1ccc2c(c1)OCO2)NC (centres undefined) [MBDB] | 148.4
CCNC(C)Cc1ccc2c(c1)OCO2 (centres undefined) [MDEA] | 147.5
CC(=O)Nc1cccc(O)c1 [Metacetamol] | 129.8
CC(=O)OC1CC[C@H]2[C@@H]3CC[C@H]4CC(=O)C=C(C)[C@]4(C)[C@H]3CC[C@]12C (some centres undefined) [Metenolone acetate] | 187.6
Cc1ccccc1-n1c(C)nc2ccccc2c1=O [Methaqualone] | 155
CCNC1(c2cccc(OC)c2)CCCCC1=O (centres undefined) [Methoxetamine] | 159.6
CCN(CC)CCNC(=O)c1cc(Cl)c(N)cc1OC [Metoclopramide] | 173.2
CN1CCN2c3ccccc3Cc3ccccc3C2C1 (centres undefined) [Mianserin] | 164.5
Cc1[nH]c(=O)c(C#N)cc1-c1ccncc1 [Milrinone] | 150.4
c1ccc2c(c1)Cc1cccnc1N1CCNCC21 (centres undefined) [Mirtazapine-M N-desmethyl] | 156.9
CN1CCN2c3ncccc3Cc3ccccc3C2C1 (centres undefined) [Mirtazapine] | 161
Oc1ccc2c3c1OC1C(O)C=CC4C(C2)NCCC341 (centres undefined) [Morphine-M Nor] | 161.5
COc1ccc(N2CCNCC2)cc1 [N-(p-Methoxyphenyl)piperazine (pMeOPP)] | 141.9
C=CCN1CC[C@]23c4c5ccc(O)c4O[C@H]2C(=O)CC[C@@]3(O)[C@H]1C5 [Naloxone] | 171.8
C[C@]12CC[C@H]3[C@@H](CCC4=CC(=O)CC[C@@H]43)[C@@H]1CC[C@@H]2O [Nandrolone] | 167.5
COCCOC(=O)C1=C(C)NC(C)=C(C(=O)OC(C)C)C1c1cccc([N+](=O)[O-])c1 (centres undefined) [Nimodipine] | 197.8
CN/C(=C\[N+](=O)[O-])NCCSCc1csc(CN(C)C)n1 [Nizatidine] | 168.4
COc1ccc2c(c1OC)C(=O)O[C@@H]2[C@H]1c2c(cc3c(c2OC)OCO3)CCN1C [Noscapine] | 194.3
Cc1cc2c(s1)Nc1ccccc1N=C2N1CCN(C)CC1 [Olanzapine] | 175.5

Structure (SMILES) | collision cross section (N2) [Å²]
NC(=O)N1c2ccccc2CC(=O)c2ccccc21 [Oxcarbazepine] | 153.8
COc1ccc(Cc2nccc3cc(OC)c(OC)cc23)cc1OC [Papaverine] | 185.3
Fc1ccc([C@@H]2CCNC[C@H]2COc2ccc3c(c2)OCO3)cc1 [Paroxetine] | 183.2
CC(C)=CCN1CCC2(C)c3cc(O)ccc3CC1C2C (centres undefined) [Pentazocine] | 173.5
CCCC(NC)C(=O)c1ccccc1 (centres undefined) [Pentedrone] | 145.7
CCN(CC)CCOCCOC(=O)C1(c2ccccc2)CCCC1 [Pentoxyverine] | 175.5
Cc1cc(=O)n(-c2ccccc2)n1C [Phenazone] | 137.7
CC1NCCOC1c1ccccc1 (centres undefined) [Phenmetrazine] | 138.9
CCC(c1ccccc1)c1c(O)c2ccccc2oc1=O (centres undefined) [Phenprocoumon] | 160
O=c1[nH]c2ccccc2n1C1CCN(CCCC(c2ccc(F)cc2)c2ccc(F)cc2)CC1 [Pimozide] | 214.4
CCN(CC)CCOC(=O)c1ccc(N)cc1 [Procaine] | 154.6
OC(CCN1CCCC1)(c1ccccc1)C1CCCCC1 (centres undefined) [Procyclidine] | 172.6
CC(C)NC(=N)NC(=N)Nc1ccc(Cl)cc1 [Proguanil] | 161.3
CN(C)CCCN1c2ccccc2Sc2ccccc21 [Promazine] | 161.5
CCCNCC(O)COc1ccccc1C(=O)CCc1ccccc1 (centres undefined) [Propafenone] | 178.5
CNCCCC1c2ccccc2C=Cc2ccccc21 [Protriptyline] | 162.8
CN(C)CCc1c[nH]c2cccc(O)c12 [Psilocin] | 144.8
C=C[C@H]1C[N@@]2CC[C@H]1C[C@@H]2[C@@H](O)c1ccnc2ccc(OC)cc12 [Quinidine] | 175.8
C=C[C@H]1C[N@@]2CC[C@H]1C[C@H]2[C@H](O)c1ccnc2ccc(OC)cc12 [Quinine] | 177.4

Structure (SMILES) | collision cross section (N2) [Å²]
CC(C)(C)NCC(O)c1ccc(O)c(CO)c1 (centres undefined) [Salbutamol] | 160
CN1[C@@H]2C[C@@H](OC(=O)[C@H](CO)c3ccccc3)C[C@H]1[C@@H]1O[C@@H]12 [Scopolamine] | 171.1
C#CCN(C)[C@H](C)Cc1ccccc1 [Selegiline] | 142.1
O=c1[nH]ccn1CCN1CCC(c2cn(-c3ccc(F)cc3)c3ccc(Cl)cc23)CC1 [Sertindol-M dehydro] | 213.8
O=C(O)c1cc(/N=N/c2ccc(S(=O)(=O)Nc3ccccn3)cc2)ccc1O [Sulfasalazine] | 199.7
CCN1CCCC1CNC(=O)c1cc(S(N)(=O)=O)ccc1OC (centres undefined) [Sulpiride] | 184.3
CC(C)(C)c1ccc(C(O)CCCN2CCC(C(O)(c3ccccc3)c3ccccc3)CC2)cc1 (centres undefined) [Terfenadine] | 229.8
CCCCNc1ccc(C(=O)OCCN(C)C)cc1 [Tetracaine] | 173.1
CN1c2ccccc2C(NCCCCCCC(=O)O)c2ccc(Cl)cc2S1(=O)=O (centres undefined) [Tianeptine] | 197
CN1CCN(CCCN2c3ccccc3Sc3ccc(C(F)(F)F)cc32)CC1 [Trifluoperazine] | 188.1
CC(CN(C)C)CN1c2ccccc2CCc2ccccc21 (centres undefined) [Trimipramine] | 171.2
COc1ccc(CCNCCCC(C#N)(c2ccc(OC)c(OC)c2)C(C)C)cc1OC (centres undefined) [Verapamil-M nor] | 207.3
Cc1cccc(C)c1NC1=NCCCS1 [Xylazine] | 147.9
Cc1cc(C(C)(C)C)cc(C)c1CC1=NCCN1 [Xylometazoline] | 170.4
COC(=O)[C@@H]1[C@H]2C[C@H]3c4[nH]c5ccccc5c4CCN3C[C@@H]2CC[C@@H]1O [Yohimbine] | 186.5
Cc1ccc2nc(-c3ccc(C(=O)O)cc3)c(CC(=O)N(C)C)n2c1 [Zolpidem-M Carboxylic acid] | 184.4
CN1CCN(C(=O)OC2c3nccnc3C(=O)N2c2ccc(Cl)cn2)CC1 (centres undefined) [Zopiclone] | 188.5
FC(F)(F)c1cccc(N2CCNCC2)c1 [m-Trifluorophenylpiperazine (TFMPP)] | 151.1

Conditions: [M+H-H2O]+; instrument: DT; stepped-field

Structure (SMILES) | collision cross section (N2) [Å²]
OCC1OC(OC2C(CO)OC(OC3C(CO)OC(OC4C(CO)OC(OC5C(CO)OC(O)C(O)C5O)C(O)C4O)C(O)C3O)C(O)C2O)C(O)C(O)C1O (centres undefined) [(Hex)5] | 282.3
OCC1OC(OC2C(CO)OC(OC3C(CO)OC(OC4C(CO)OC(OC5C(CO)OC(OC6C(CO)OC(OC7C(CO)OC(OC8C(CO)OC(OC9C(CO)OC(OC%10C(CO)OC(OC%11C(CO)OC(O)C(O)C%11O)C(O)C%10O)C(O)C9O)C(O)C8O)C(O)C7O)C(O)C6O)C(O)C5O)C(O)C4O)C(O)C3O)C(O)C2O)C(O)C(O)C1O (centres undefined) [(Hex)11] | 379.1

Same assay, conditions: [M+H]+; instrument: DT; stepped-field

Structure (SMILES) | collision cross section (N2) [Å²]
C[C@H](N)C(=O)N[C@@H](C)C(=O)NCC(=O)N[C@@H](Cc1c[nH]cn1)C(=O)N[C@@H](CC(=O)O)C(=O)NCC(=O)N[C@@H](CCCCN)C(=O)O [AAGHDGK] | 249
CC(C)C[C@H](NC(=O)[C@H](CC(=O)O)NC(=O)[C@H](C)N)C(=O)N[C@@H](C)C(=O)N[C@@H](CCCCN)C(=O)O [ADLAK] | 228.3
CCC(C)[C@H](NC(=O)[C@H](CC(C)C)NC(=O)[C@H](CC(C)C)NC(=O)[C@H](CCC(=O)O)NC(=O)[C@H](CC(N)=O)NC(=O)[C@H](C)N)C(=O)N[C@@H](CC(N)=O)C(=O)N[C@H](C(=O)N[C@@H](CCCCN)C(=O)O)C(C)C (some centres undefined) [ANELLINVK] | 326.8

Same assay, conditions: [M+K]+; instrument: DT; stepped-field

Structure (SMILES) | collision cross section (N2)
OCC1OC(OC2C(CO)OC(OC3C(CO)OC(OC4C(CO)OC(OC5C(CO)OC(OC6C(CO)OC(OC7C(CO)OC(OC8C(CO)OC(OC9C(CO)OC(OC%10C(CO)OC(OC%11C(CO)OC(O)C(O)C%11O)C(O)C%10O)C(O)C9O)C(O)C8O)C(O)C7O)C(O)C6O)C(O)C5O)C(O)C4O)C(O)C3O)C(O)C2O)C(O)C(O)C1O (centres undefined) [(Hex)11] | 364.8 Å² and 367.1 Å²

Same assay, conditions: [M+Li]+; instrument: DT; stepped-field

Structure (SMILES) | collision cross section (N2) [Å²]
OCC1OC(OC2C(CO)OC(OC3C(CO)OC(OC4C(CO)OC(OC5C(CO)OC(OC6C(CO)OC(OC7C(CO)OC(OC8C(CO)OC(OC9C(CO)OC(OC%10C(CO)OC(OC%11C(CO)OC(O)C(O)C%11O)C(O)C%10O)C(O)C9O)C(O)C8O)C(O)C7O)C(O)C6O)C(O)C5O)C(O)C4O)C(O)C3O)C(O)C2O)C(O)C(O)C1O (centres undefined) [(Hex)11] | 369.7

Same assay, conditions: [M+Na-H2O]+; instrument: DT; stepped-field

Structure (SMILES) | collision cross section (N2) [Å²]
OCC1OC(OC2(CO)OC(CO)C(O)C2O)C(O)C(O)C1O (centres undefined) [(Hex)2] | 172.1
OCC1OC(OC2C(CO)OC(OC3C(CO)OC(O)C(O)C3O)C(O)C2O)C(O)C(O)C1O (centres undefined) [(Hex)3] | 204.9
OCC1OC(OC2C(CO)OC(OC3C(CO)OC(OC4C(CO)OC(OC5C(CO)OC(O)C(O)C5O)C(O)C4O)C(O)C3O)C(O)C2O)C(O)C(O)C1O (centres undefined) [(Hex)5] | 263.1

Same assay, conditions: [M+Na]+; instrument: DT; stepped-field

Structure (SMILES) | collision cross section (N2) [Å²]
OCC1OC(OC2C(CO)OC(OC3C(CO)OC(OC4C(CO)OC(OC5C(CO)OC(O)C(O)C5O)C(O)C4O)C(O)C3O)C(O)C2O)C(O)C(O)C1O (centres undefined) [(Hex)5] | 259.5
OCC1OC(OC2C(CO)OC(OC3C(CO)OC(OC4C(CO)OC(OC5C(CO)OC(OC6C(CO)OC(OC7C(CO)OC(OC8C(CO)OC(OC9C(CO)OC(OC%10C(CO)OC(OC%11C(CO)OC(O)C(O)C%11O)C(O)C%10O)C(O)C9O)C(O)C8O)C(O)C7O)C(O)C6O)C(O)C5O)C(O)C4O)C(O)C3O)C(O)C2O)C(O)C(O)C1O (centres undefined) [(Hex)11] | 384.6

Same assay, conditions: [M+Rb]+; instrument: DT; stepped-field

Structure (SMILES) | collision cross section (N2)
OCC1OC(OC2C(CO)OC(OC3C(CO)OC(OC4C(CO)OC(OC5C(CO)OC(OC6C(CO)OC(OC7C(CO)OC(OC8C(CO)OC(OC9C(CO)OC(OC%10C(CO)OC(OC%11C(CO)OC(O)C(O)C%11O)C(O)C%10O)C(O)C9O)C(O)C8O)C(O)C7O)C(O)C6O)C(O)C5O)C(O)C4O)C(O)C3O)C(O)C2O)C(O)C(O)C1O (centres undefined) [(Hex)11] | 363.1 Å² and 369.7 Å²
